Assay results published in patent US20230173074A1, “BIOCOMPATIBLE MATERIAL AND METHODS FOR MAKING AND USING THE SAME” (PLERYON THERAPEUTICS (SHENZHEN) LIMITED, priority 2020, published 2023).
{3'dT} = capped with 3'-dT; {C6} = six-carbon (C6) cap; m = 2'-O-methyl; r = 2'-OH (RNA); f = 2'-fluoro

Assay: Release of aptamer from hydrogel (UV 260 nm)
Conditions: PBS, 37° C.
Excerpt: Hydrogel was formed similar to Example 5. An aptamer similar to Macugen of the following sequence of nucleotides and functional groups: CfGmGmAAUfCfAmGmUfGmAmAmUfGmCfUfUfAmUfAmCfAmUfCfCfGm3′(SEQ ID NO:1), with 5′ end caped with 6 carbon (C6) and 3′ end caped with a 3′-dT-S′ and Cy3 fluorescent dye, was used as an aptamer example. Gm or Am and Cf or Uf represent 2-methoxy and 2-fluoro variants of their respective purines and pyrimidines, and C, A, U and G code for cytidylic, adenylic, uridylic and guanylic acids. Hydrogels were formed similar to Example 5, except that the solution before gel formation was added to the API in powder form. The gel was incubated at 37° C. for 2 days before release experiment. For the release experiment, a small portion of gel (between […]) were transferred by a 3 mL disposable plastic pipettes into a 10 ml glass vial at ambient temperature, and the mass was measured for the final release calculation. The glass vial was slowly filled up with 5 ml of PBS solutions to minimize the disturbing of gel. The release was performed at 37° C. in triplicate. At each predetermined time point, 0.5 h, 1 h, 2 h, and 4 h in this case, the sample was gently shake for 10 s and sit at ambient temperature for 10 min before 1000 μl of releasing buffer were taken for UV quantification at 260 nm. The experiments were performed in triplicate.

## aptamer: modified RNA aptamer similar to Macugen (SEQ ID NO:1), 5′ C6 cap, 3′-dT and Cy3 dye (CGGAAUCAGUGAAUGCUUAUACAUCCG; sugars from the 5' end fmmrrffmmfmmmfmfffmfmfmfffm, 5' {C6}, 3' {3'dT}, backbone not given here; Cy3 fluorescent dye attached, further chemistry not fully specified)
Hydrogel Ap1 (FIG. 21)
  duration of release from hydrogel: about 4 hours
Hydrogel Ap2 (FIG. 22)
  duration of release from hydrogel: about 4 hours
